Laboratory results taken from patent US4159373A, “7-Acyl-3-(sulfonic acid and sulfamoyl substituted tetrazolyl thiomethyl) cephalosporins” (SmithKline Corporation, priority 1978, dated 1979).
≈ marks a conversion by molar mass, not a printed value. Like-named read-outs stand apart in the source and are kept apart here.

Tests used:
[1] = test system: E. coli SK 12140; assay: MIC in vitro; assay type: cell-based; details: Escherichia coli
Protocol: (§1) The compounds of Formula I have exceptional antibacterial activity against both Gram-positive and Gram-negative organisms. Minimum inhibitory concentrations (MIC's) ranged from 0.2 to <200 μg./ml. in in vitro testing.

[2] = test system: Proteus morgani 179; assay: MIC in vitro; assay type: cell-based
Protocol: as §1

[3] = test system: S. aureus HH 127; assay: MIC in vitro; assay type: cell-based; details: Staphylococcus aureus
Protocol: as §1

[4] = test system: Strep. Faecalis HH 34358; assay: MIC in vitro; assay type: cell-based; details: Enterococcus faecalis
Protocol: as §1

[5] = test system: Kleb. pneumo. SK 1200; assay: MIC in vitro; assay type: cell-based, Kleb. pneumoniae; details: Klebsiella pneumoniae
Protocol: as §1

[6] = test system: Kleb. pneumo. SK 4200; assay: MIC in vitro; assay type: cell-based, Kleb. pneumoniae; details: Klebsiella pneumoniae
Protocol: as §1

[7] = test system: Psuedo. sp. HH 63; assay: MIC in vitro; assay type: cell-based, Pseudo. aeruginosa; details: Pseudomonas aeruginosa
Protocol: as §1

[8] = test system: Entero. aerog. ATCC 13048; assay: MIC in vitro; assay type: cell-based, Enterobacter aerogenes; details: Klebsiella aerogenes
Protocol: as §1

[9] = test system: Serra. marc ATCC 13880; assay: MIC in vitro; assay type: cell-based, Serratia marcescens; details: Serratia marcescens
Protocol: as §1

[10] = test system: Staph. aureus 671; assay: MIC in vitro; assay type: cell-based; details: Staphylococcus aureus, Example 54 table
[11] = test system: Staph. aureus 674; assay: MIC in vitro; assay type: cell-based; details: Staphylococcus aureus, 674, Example 54 table
[12] = test system: E. coli 804; assay: MIC in vitro; assay type: cell-based; details: Escherichia coli, Example 54 table, read-out: MIC
[13] = test system: Kleb. pneumoniae 982; assay: MIC in vitro; assay type: cell-based; details: Klebsiella pneumoniae, Example 54 table, read-out: MIC
[14] = test system: Pseudo. aeruginosa 647; assay: MIC in vitro; assay type: cell-based; details: Pseudomonas aeruginosa, Example 54 table, read-out: MIC
[15] = test system: Proteus mirabilis 444; assay: MIC in vitro; assay type: cell-based; details: Example 54 table, read-out: MIC
[16] = test system: Enterobacter cloacae 921; assay: MIC in vitro; assay type: cell-based; details: Enterobacter cloacae, 921, Example 54 table
[17] = test system: E. coli 12140; assay: In vivo mouse protection, E. coli 12140
[18] = test system: Kleb. pneumo. 4200; assay: In vivo mouse protection, Kleb. pneumo. 4200; details: sc
[19] = test system: E. coli HH 33779; assay: MIC in vitro; assay type: cell-based; details: Escherichia coli, HH33779, Table 1; E. coli HH 33779; read-out: MIC in vitro
Protocol: as §1

[20] = test system: S. aureus SK 23390; assay: MIC in vitro; assay type: cell-based; details: Staphylococcus aureus
Protocol: as §1

[21] = test system: S. villaluz; assay: MIC in vitro; assay type: cell-based; details: Table 1
Protocol: as §1

[22] = test system: Salmonella ATCC 12176; assay: MIC in vitro; assay type: cell-based; details: Salmonella, ATCC12176, Table 1, read-out: MIC in vitro
Protocol: as §1

[23] = test system: shigella HH 117; assay: MIC in vitro; assay type: cell-based; details: HH117; Table 1; shigella HH 117; read-out: MIC in vitro
Protocol: as §1

[24] = test system: Entero. cloacae HH 31254; assay: MIC in vitro; assay type: cell-based; details: Enterobacter cloacae
[25] = SK12140, Table 1, E. coli SK 12140, read-out: MIC in vitro
[26] = Table 1, read-out: MIC in vitro
[27] = SK23390, Table 1, S. aureus SK 23390, read-out: MIC in vitro
[28] = Table 1, Strep. Faecalis HH 34358, read-out: MIC in vitro
[29] = Table 1, Kleb. pneumo. SK 1200, read-out: MIC in vitro
[30] = Table 1, Kleb. pneumo. SK 4200, read-out: MIC in vitro
[31] = Table 1, Psuedo. sp. HH 63, read-out: MIC in vitro
[32] = ATCC13048, Table 1, Entero. aerog. ATCC 13048, read-out: MIC in vitro
[33] = ATCC13880, Table 1, Serra. marc ATCC 13880, read-out: MIC in vitro
[34] = HH31254, read-out: MIC in vitro, Table 1
[35] = Escherichia coli, 12140, po, Table 2, E. coli 12140, p.o., read-out: ED50 in vivo
[36] = Escherichia coli, 12140, sc, Table 2, E. coli 12140, s.c., read-out: ED50 in vivo
[37] = Table 2, Kleb. pneumo. 4200, s.c., read-out: ED50 in vivo
[38] = SK12140, read-out: MIC in vitro, Table 1, E. coli SK 12140
[39] = HH127, Table 1, S. aureus HH 127, read-out: MIC in vitro
[40] = HH31254, Table 1, read-out: MIC in vitro

| SMILES | MIC [19] | MIC [1, 25] | MIC [2, 26] | MIC [20, 27] | MIC [21] | MIC [22] | MIC [4, 28] | MIC [23] | MIC [5, 29] | MIC [6, 30] | MIC [7, 31] | MIC [8, 32] | MIC [9, 33] | MIC [24, 34] | ED50 [17, 35] | ED50 [17, 36] | ED50 [18, 37] | MIC [1, 38] | MIC [3, 39] | MIC [24, 40] | other results |
| --- | --- | --- | --- | --- | --- | --- | --- | --- | --- | --- | --- | --- | --- | --- | --- | --- | --- | --- | --- | --- | --- |
| NCc1ccc(CC(=O)NC2C(=O)N3C(C(=O)O)=C(CSc4nnnn4CS(=O)(=O)O)CSC23)cc1 (stereo not shown) [Example 54, 7-(4-Aminomethylphenylacetamido)-3-(1-sulfomethyltetrazol-5-ylthiomethyl)-3-cephem-4-carboxylic acid] |  |  |  |  |  |  |  |  |  |  |  |  |  |  |  |  |  |  |  |  | MIC ([1]; SK12140, Example 54 table, E. coli SK&F 12140, read-out: MIC): 6.3 µg/mL (≈ 11.3 µM); MIC ([2]; Example 54 table, read-out: MIC): > 100 µg/mL; MIC ([3]; HH127, Example 54 table, Staph. aureus HH 127, read-out: MIC): 6.3 µg/mL (≈ 11.3 µM); MIC ([4]; Example 54 table, Strep. faecalis HH 34358, read-out: MIC): 100 µg/mL (≈ 180 µM); MIC ([5]; Example 54 table, Kleb. pneumoniae SK&F 1200, read-out: MIC): 0.4 µg/mL (≈ 0.72 µM); MIC ([6]; Example 54 table, Kleb. pneumoniae SK&F 4200, read-out: MIC): 0.4 µg/mL (≈ 0.72 µM); MIC ([7]; Example 54 table, Pseudo. aeruginosa HH 63, read-out: MIC): > 100 µg/mL; MIC ([8]; ATCC13048, Example 54 table, Enterobacter aerogenes 13048, read-out: MIC): > 100 µg/mL; MIC ([9]; ATCC13880, Example 54 table, Serratia marcescens ATCC 13880, read-out: MIC): > 100 µg/mL; MIC [10]: 3.1 µg/mL (≈ 5.58 µM); MIC [11]: 3.1 µg/mL (≈ 5.58 µM); MIC [12]: > 100 µg/mL; MIC [13]: > 100 µg/mL; MIC [14]: > 100 µg/mL; MIC [15]: 1.6 µg/mL (≈ 2.88 µM); MIC [16]: 100 µg/mL (≈ 180 µM); ED50 ([17]; Escherichia coli, 12140, sc, Example 54, s.c., E. coli SKF 12140, read-out: ED50): 8.7 mg/kg; ED50 ([18]; Example 54, s.c., K. pneumo. SKF 4200, read-out: ED50): 0.7 mg/kg |
| O=C(O)C1=C(CSc2nnnn2CCCCCS(=O)(=O)O)CS[C@@H]2C(NC(=O)[C@H](O)c3ccccc3)C(=O)N12 (stereo partly drawn) [IV, 7-D-Mandelamido-3-[1-(5-sulfopentyl)tetrazol-5-ylthiomethyl]-3-cephem-4-carboxylic acid] | 6.3 µg/mL (≈ 10.5 µM) | 1.6 µg/mL (≈ 2.67 µM) | 3.1 µg/mL (≈ 5.18 µM) | 0.8 µg/mL (≈ 1.34 µM) | 12.5 µg/mL (≈ 20.9 µM) | 3.1 µg/mL (≈ 5.18 µM) | 50 µg/mL (≈ 83.5 µM) | 0.8 µg/mL (≈ 1.34 µM) | 1.6 µg/mL (≈ 2.67 µM) | 1.6 µg/mL (≈ 2.67 µM) | > 200 µg/mL | 6.3 µg/mL (≈ 10.5 µM) | 100 µg/mL (≈ 167 µM) | 0.8 µg/mL (≈ 1.34 µM) | > 50 mg/kg | 18 mg/kg | 15.7 mg/kg |  |  |  | MIC ([3]; HH127, read-out: MIC in vitro, Table 1, S. aureus HH 127): 3.1 µg/mL (≈ 5.18 µM) |
| NS(=O)(=O)CCn1nnnc1SCC1=C(C(=O)O)N2C(=O)C(NC(=O)CSC(F)(F)F)C2SC1 (stereo not shown) [IX, 7-Trifluoromethylthioacetamido-3-[1-(2-sulfamoylethyl)tetrazol-5-ylthiomethyl]-3-cephem-4-carboxylic acid] | 1.6 µg/mL (≈ 2.84 µM) |  | 200 µg/mL (≈ 355 µM) |  | 6.3 µg/mL (≈ 11.2 µM) | 0.4 µg/mL (≈ 0.71 µM) | 12.5 µg/mL (≈ 22.2 µM) | 0.2 µg/mL (≈ 0.355 µM) | 0.4 µg/mL (≈ 0.71 µM) |  | > 200 µg/mL | 1.6 µg/mL (≈ 2.84 µM) | 100 µg/mL (≈ 177 µM) | 0.8 µg/mL (≈ 1.42 µM) | 44 mg/kg | 1.56 mg/kg |  | 0.8 µg/mL (≈ 1.42 µM) | 0.4 µg/mL (≈ 0.71 µM) |  | MIC ([20]; SK23390, read-out: MIC in vitro): 0.2 µg/mL (≈ 0.355 µM); MIC ([6]; read-out: MIC in vitro): 0.8 µg/mL (≈ 1.42 µM) |
| O=C(Cc1cccs1)NC1C(=O)N2C(C(=O)O)=C(CSc3nnnn3CCS(=O)(=O)O)CS[C@H]12 (stereo partly shown) [VI, 7-(2-Thienylacetamido)-3-[1-(2-sulfoethyl)tetrazol-5-ylthiomethyl]-3-cephem-4-carboxylic acid] | 12.5 µg/mL (≈ 22.9 µM) |  | > 200 µg/mL | 0.8 µg/mL (≈ 1.46 µM) | 3.1 µg/mL (≈ 5.67 µM) | 0.8 µg/mL (≈ 1.46 µM) | 50 µg/mL (≈ 91.5 µM) | 3.1 µg/mL (≈ 5.67 µM) | 0.8 µg/mL (≈ 1.46 µM) | 1.6 µg/mL (≈ 2.93 µM) | > 200 µg/mL | 25 µg/mL (≈ 45.7 µM) | > 200 µg/mL |  |  | 4.4 mg/kg | 1.56 mg/kg | 3.1 µg/mL (≈ 5.67 µM) | 1.6 µg/mL (≈ 2.93 µM) | 6.3 µg/mL (≈ 11.5 µM) |  |
| NS(=O)(=O)CCn1nnnc1SCC1=C(C(=O)O)N2C(=O)C(NC(=O)Cc3cccs3)[C@H]2SC1 (stereo partly shown) [VIII, 7-(2-thienylacetamido)-3-[1-(2-sulfamoylethyl)tetrazol-5-ylthiomethyl]-3-cephem-4-carboxylic acid] | 1.6 µg/mL (≈ 2.93 µM) | 0.8 µg/mL (≈ 1.47 µM) | > 200 µg/mL | 0.1 µg/mL (≈ 0.183 µM) | 1.6 µg/mL (≈ 2.93 µM) | 0.8 µg/mL (≈ 1.47 µM) | 6.3 µg/mL (≈ 11.5 µM) | 0.4 µg/mL (≈ 0.733 µM) |  | 1.6 µg/mL (≈ 2.93 µM) | > 200 µg/mL | 3.1 µg/mL (≈ 5.68 µM) | 200 µg/mL (≈ 367 µM) |  | > 50 mg/kg | 1.32 mg/kg | 2 mg/kg |  | 0.4 µg/mL (≈ 0.733 µM) | 0.8 µg/mL (≈ 1.47 µM) | MIC ([5]; read-out: MIC in vitro): 0.4 µg/mL (≈ 0.733 µM) |
| O=C(Cn1cnnn1)NC1C(=O)N2C(C(=O)O)=C(CSc3nnnn3CS(=O)(=O)O)CSC12 (stereo not shown) [X, 7-(1-tetrazolylacetamido)-3-(1-sulfomethyltetrazol-5-ylthiomethyl)-3-cephem-4-carboxylic acid] | 0.8 µg/mL (≈ 1.54 µM) |  | 200 µg/mL (≈ 386 µM) | 1.6 µg/mL (≈ 3.09 µM) | > 200 µg/mL | 0.4 µg/mL (≈ 0.771 µM) | 50 µg/mL (≈ 96.4 µM) | 0.2 µg/mL (≈ 0.386 µM) | 0.2 µg/mL (≈ 0.386 µM) | 0.4 µg/mL (≈ 0.771 µM) | > 200 µg/mL | 3.1 µg/mL (≈ 5.98 µM) | 200 µg/mL (≈ 386 µM) | 0.8 µg/mL (≈ 1.54 µM) | 50 mg/kg | 1.56 mg/kg | 0.64 mg/kg | 0.4 µg/mL (≈ 0.771 µM) | 1.6 µg/mL (≈ 3.09 µM) |  |  |
